The experiment concerns the target T1, AR LBD dimerization (Homo sapiens, UniProt P10275).
T1 construct: LBD residues (613 -920); expressed in transfected cells; host or cells: HEK293T
Kind of experiment: Acceptor photobleaching FRET microscopy assay in HEK293T cells. Type of experiment: cell-based. Particulars: 10 μM, 10 nM DHT. As to the method:
(22.86 nM - 50 μM). After another 24 h incubation, the luciferase activities were determined by the Dual -Glo Luciferase system (#E1910, Promega) according to the […]
Acceptor Photobleaching Fluorescence Resonance Energy Transfer (FRET) […]
The pCMV-cyan fluorescent protein (CFP, #D2623) and pCMV -yellow fluorescent protein (YFP, #D2716) plasmids were purchased from Beyotime Biotechnology. We constructed pCMV -YFP-(AR LBD) and pCMV -(AR LBD)-CFP by cloning human AR LBD residues (613 -920) into the fluorescent protein vector using seamless cloning kit (#C112-01, CloneExpress II, Vazyme). HEK293T (1× 10^5 cells/well) cells were cultured in 5% CSS DMEM media in 12-well plate with glass coverslips. The next day, ce lls were transfected with 400 ng pCMV -YFP-(AR LBD), 400 ng pCMV -(AR LBD) -CFP together with HG -Trans Gene TM transfection reagent (#TG-10012, Health & Gene™). Free YFP and CFP proteins were transfected together as control. […]
The FRET assay was then tested by Olympus FV1000 equipped with a UPlanSApo 60× /1.35 NA oil objective. CFP was detected using 405 nm excitation while YFP was excited using 515 nm at moderate laser power, and the emission was detected using a 480-495 nm bandpass emission filter and 535-565 nm bandpass emission filter, respectively.
The first pair of CFPbefore and YFPbefore was collected. […] The apparent FRET efficiency was calculated after background […]

T1 sequence (P10275 613-920): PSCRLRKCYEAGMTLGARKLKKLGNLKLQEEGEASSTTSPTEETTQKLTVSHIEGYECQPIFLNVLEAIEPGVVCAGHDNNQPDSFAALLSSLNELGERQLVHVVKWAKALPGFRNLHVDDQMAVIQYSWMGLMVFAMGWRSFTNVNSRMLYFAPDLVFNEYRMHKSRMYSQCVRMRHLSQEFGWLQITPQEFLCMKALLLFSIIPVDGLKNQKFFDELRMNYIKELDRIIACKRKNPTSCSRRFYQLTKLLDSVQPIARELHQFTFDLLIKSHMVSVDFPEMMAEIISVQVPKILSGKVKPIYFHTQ

Regarding `CC(=O)Cc1nsc(NC(=O)c2cc(-c3cccc(C(F)(F)F)c3)oc2C)n1` [Compound M17-B15], the “FRET efficiency (AR LBD dimerization)” value is on record as “lower FRET efficiency”.

The record behind these values is PMC10141604, “Small-Molecule Inhibition of Androgen Receptor Dimerization as a Strategy against Prostate Cancer” (ACS Central Science, 2023).
